# Experimental data from ChEMBL document CHEMBL3885881, “DrugMatrix”.
# Species: Rattus norvegicus
# Test: DrugMatrix - Regimen: Daily Repeat
# Assay type: toxicity, organism-based, Sprague-Dawley
# Design: regimen Daily Repeat, gender Male, age 6-8 weeks
# Conditions: in vivo, po, route oral GAVAGE, vehicle .5 % CMC; for ABSOLUTE BASOPHIL / ABSOLUTE EOSINOPHIL / ABSOLUTE LYMPHOCYTE / ABSOLUTE MONOCYTE / ABSOLUTE SEGMENTED NEUTROPHIL / BASOPHIL / EOSINOPHIL / ERYTHROCYTE COUNT / HEMATOCRIT / HEMOGLOBIN / LEUKOCYTE COUNT / LYMPHOCYTE / MEAN CORPUSCULAR HEMOGLOBIN / MEAN CORPUSCULAR HEMOGLOBIN CONCENTRATION / MEAN CORPUSCULAR VOLUME / MONOCYTE / NEUTROPHIL / NUCLEATED RED BLOOD CELLS / PLATELET COUNT: tissue Blood; for ALANINE AMINOTRANSFERASE / ALBUMIN / ALKALINE PHOSPHATASE / ASPARTATE AMINOTRANSFERASE / BLOOD UREA NITROGEN / CARBON DIOXIDE / CHLORIDE / CHOLESTEROL / CREATINE PHOSPHOKINASE / CREATININE / GLUCOSE / LACTATE DEHYDROGENASE / LIPASE / PHOSPHORUS / POTASSIUM / SODIUM / TOTAL BILIRUBIN / TOTAL PROTEIN / URIC ACID: tissue Plasma
# [1] = 0 mg/kg, 72 h, dose level Control, time 3 day
# [2] = 0 mg/kg, 120 h, dose level Control, time 5 day
# [3] = 25 mg/kg, 72 h, dose level Low, time 3 day
smiles,measurement,setting,value
C[C@](O)(CS(=O)(=O)c1ccc(F)cc1)C(=O)Nc1ccc(C#N)c(C(F)(F)F)c1 [(R)-BICALUTAMIDE],ABSOLUTE BASOPHIL,[1],0 CELLS/uL
same,ABSOLUTE EOSINOPHIL,[1],171.33 CELLS/uL
same,ABSOLUTE LYMPHOCYTE,[1],13776.5 CELLS/uL
same,ABSOLUTE MONOCYTE,[1],180.83 CELLS/uL
same,ABSOLUTE SEGMENTED NEUTROPHIL,[1],1121.33 CELLS/uL
same,BASOPHIL,[1],0%
same,EOSINOPHIL,[1],1%
same,ERYTHROCYTE COUNT,[1],5.56 x10E6/uL
same,HEMATOCRIT,[1],34.75%
same,HEMOGLOBIN,[1],13.68 G/DL
same,LEUKOCYTE COUNT,[1],15.25 x10E3/uL
same,LYMPHOCYTE,[1],90.17%
same,MEAN CORPUSCULAR HEMOGLOBIN,[1],24.6 pg
same,MEAN CORPUSCULAR HEMOGLOBIN CONCENTRATION,[1],39.4 G/DL
same,MEAN CORPUSCULAR VOLUME,[1],62.48 fL
same,MONOCYTE,[1],1.17%
same,NEUTROPHIL,[1],7.67%
same,NUCLEATED RED BLOOD CELLS,[1],0 /100WBC
same,PLATELET COUNT,[1],1342 x10E3/uL
same,ALANINE AMINOTRANSFERASE,[1],49.67 u/L
same,ALBUMIN,[1],4.15 G/DL
same,ALKALINE PHOSPHATASE,[1],346.83 u/L
same,ASPARTATE AMINOTRANSFERASE,[1],108.17 u/L
same,BLOOD UREA NITROGEN,[1],17.33 mg/dL
same,CARBON DIOXIDE,[1],25 mmol/L
same,CHLORIDE,[1],100.83 MEQ/L
same,CHOLESTEROL,[1],66.83 mg/dL
same,CREATINE PHOSPHOKINASE,[1],788 u/L
same,CREATININE,[1],0.18 mg/dL
same,GLUCOSE,[1],151.67 mg/dL
same,LACTATE DEHYDROGENASE,[1],982.5 u/L
same,LIPASE,[1],10.33 u/L
same,PHOSPHORUS,[1],11.23 mg/dL
same,POTASSIUM,[1],6.37 MEQ/L
same,SODIUM,[1],141.02 MEQ/L
same,TOTAL BILIRUBIN,[1],0.18 mg/dL
same,TOTAL PROTEIN,[1],5.9 G/DL
same,URIC ACID,[1],1.8 mg/dL
same,ABSOLUTE BASOPHIL,[2],0 CELLS/uL
same,ABSOLUTE EOSINOPHIL,[2],69 CELLS/uL
same,ABSOLUTE LYMPHOCYTE,[2],13632.83 CELLS/uL
same,ABSOLUTE MONOCYTE,[2],139.83 CELLS/uL
same,ABSOLUTE SEGMENTED NEUTROPHIL,[2],1225 CELLS/uL
same,BASOPHIL,[2],0%
same,EOSINOPHIL,[2],0.33%
same,ERYTHROCYTE COUNT,[2],5.52 x10E6/uL
same,HEMATOCRIT,[2],33.98%
same,HEMOGLOBIN,[2],13.22 G/DL
same,LEUKOCYTE COUNT,[2],15.07 x10E3/uL
same,LYMPHOCYTE,[2],90.83%
same,MEAN CORPUSCULAR HEMOGLOBIN,[2],23.95 pg
same,MEAN CORPUSCULAR HEMOGLOBIN CONCENTRATION,[2],38.9 G/DL
same,MEAN CORPUSCULAR VOLUME,[2],61.53 fL
same,MONOCYTE,[2],0.83%
same,NEUTROPHIL,[2],8%
same,NUCLEATED RED BLOOD CELLS,[2],0 /100WBC
same,PLATELET COUNT,[2],1196 x10E3/uL
same,ALANINE AMINOTRANSFERASE,[2],49.17 u/L
same,ALBUMIN,[2],4.2 G/DL
same,ALKALINE PHOSPHATASE,[2],352.33 u/L
same,ASPARTATE AMINOTRANSFERASE,[2],89.67 u/L
same,BLOOD UREA NITROGEN,[2],18 mg/dL
same,CARBON DIOXIDE,[2],27.67 mmol/L
same,CHLORIDE,[2],101 MEQ/L
same,CHOLESTEROL,[2],72.83 mg/dL
same,CREATINE PHOSPHOKINASE,[2],417.5 u/L
same,CREATININE,[2],0.18 mg/dL
same,GLUCOSE,[2],150.5 mg/dL
same,LACTATE DEHYDROGENASE,[2],517.33 u/L
same,LIPASE,[2],9 u/L
same,PHOSPHORUS,[2],11.87 mg/dL
same,POTASSIUM,[2],6.57 MEQ/L
same,SODIUM,[2],143.62 MEQ/L
same,TOTAL BILIRUBIN,[2],0.2 mg/dL
same,TOTAL PROTEIN,[2],6.08 G/DL
same,URIC ACID,[2],1.45 mg/dL
same,ABSOLUTE BASOPHIL,[3],0 CELLS/uL
same,ABSOLUTE EOSINOPHIL,[3],0 CELLS/uL
same,ABSOLUTE LYMPHOCYTE,[3],11565 CELLS/uL
same,ABSOLUTE MONOCYTE,[3],208.33 CELLS/uL
same,ABSOLUTE SEGMENTED NEUTROPHIL,[3],926.67 CELLS/uL
same,BASOPHIL,[3],0%
same,EOSINOPHIL,[3],0%
same,ERYTHROCYTE COUNT,[3],5.66 x10E6/uL
same,HEMATOCRIT,[3],35.2%
same,HEMOGLOBIN,[3],13.9 G/DL
same,LEUKOCYTE COUNT,[3],12.7 x10E3/uL
same,LYMPHOCYTE,[3],91%
same,MEAN CORPUSCULAR HEMOGLOBIN,[3],24.57 pg
same,MEAN CORPUSCULAR HEMOGLOBIN CONCENTRATION,[3],39.47 G/DL
same,MEAN CORPUSCULAR VOLUME,[3],62.23 fL
same,MONOCYTE,[3],1.67%
same,NEUTROPHIL,[3],7.33%
same,NUCLEATED RED BLOOD CELLS,[3],0.33 /100WBC
same,PLATELET COUNT,[3],1165 x10E3/uL
same,ALANINE AMINOTRANSFERASE,[3],46.33 u/L
same,ALBUMIN,[3],4.1 G/DL
same,ALKALINE PHOSPHATASE,[3],367.67 u/L
same,ASPARTATE AMINOTRANSFERASE,[3],75.67 u/L
same,BLOOD UREA NITROGEN,[3],14.33 mg/dL
same,CARBON DIOXIDE,[3],27 mmol/L
same,CHLORIDE,[3],102.67 MEQ/L
same,CHOLESTEROL,[3],80.33 mg/dL
same,CREATINE PHOSPHOKINASE,[3],447.67 u/L
same,CREATININE,[3],0.21 mg/dL
same,GLUCOSE,[3],137.67 mg/dL
same,LACTATE DEHYDROGENASE,[3],242 u/L
same,LIPASE,[3],10.67 u/L
same,PHOSPHORUS,[3],11.97 mg/dL
same,POTASSIUM,[3],6.21 MEQ/L
same,SODIUM,[3],143.67 MEQ/L
same,TOTAL BILIRUBIN,[3],0.2 mg/dL
same,TOTAL PROTEIN,[3],5.87 G/DL
same,URIC ACID,[3],1.37 mg/dL
